# In patent US7256286B2, “Bryostatin analogues, synthetic methods and uses” (The Board of Trustees of the Leland Stanford Junior …, priority 1999, dated 2007):
# Tests used:
# [1] = system: NCI human cancer cell-lines; assay: In vitro inhibition of growth in human cancer cell lines (all cell groups); format: cell-based; settings: on average, all cell groups tested
# CCRF-CEM = assay: NCI human cancer cell line growth inhibition: CCRF-CEM; format: cell-based; settings: Leukemia
# HL-60(TB) = assay: cells; format: cell-based, human
# K-562 = assay: NCI human cancer cell line growth inhibition: K-562; format: cell-based; settings: K-562, Leukemia
# SR = assay: NCI human cancer cell line growth inhibition: SR; format: cell-based; settings: Leukemia
# A549/ATCC = assay: NCI human cancer cell line growth inhibition: A549/ATCC; format: cell-based; settings: NSC Lung
# EKVX = assay: NCI human cancer cell line growth inhibition: EKVX; format: cell-based; settings: NSC Lung
# HOP-62 = assay: NCI human cancer cell line growth inhibition: HOP-62; format: cell-based; settings: Homo sapiens; HOP-62, NSC Lung
# COLO 205 = assay: NCI human cancer cell line growth inhibition: COLO 205; format: cell-based; settings: COLO 205, Colon
# HCT-116 = assay: NCI human cancer cell line growth inhibition: HCT-116; format: cell-based; settings: HCT-116, Colon
# HT29 = assay: NCI human cancer cell line growth inhibition: HT29; format: cell-based; settings: HT29, Colon
# SW-620 = assay: NCI human cancer cell line growth inhibition: SW-620; format: cell-based; settings: SW-620, Colon
# SF-268 = assay: NCI human cancer cell line growth inhibition: SF-268; format: cell-based; settings: SF-268, CNS
# SF-295 = assay: NCI human cancer cell line growth inhibition: SF-295; format: cell-based; settings: SF-295, CNS
# SF-539 = assay: NCI human cancer cell line growth inhibition: SF-539; format: cell-based; settings: SF-539, CNS
# SNB-75 = assay: NCI human cancer cell line growth inhibition: SNB-75; format: cell-based; settings: SNB-75, CNS
# U251 = assay: NCI human cancer cell line growth inhibition: U251; format: cell-based; settings: U251, CNS
# PC-3 = assay: NCI human cancer cell line growth inhibition: PC-3; format: cell-based; settings: PC-3, Prostate
# DU-145 = assay: NCI human cancer cell line growth inhibition: DU-145; format: cell-based; settings: DU-145, Prostate
# LOX IMVI = assay: NCI human cancer cell line growth inhibition: LOX IMVI; format: cell-based; settings: Melanoma
# SK-MEL-5 = assay: NCI human cancer cell line growth inhibition: SK-MEL-5; format: cell-based; settings: SK-MEL-5, Melanoma
# UACC-257 = assay: NCI human cancer cell line growth inhibition: UACC-257; format: cell-based; settings: UACC-257, Melanoma
# UACC-62 = assay: NCI human cancer cell line growth inhibition: UACC-62; format: cell-based; settings: UACC-62, Melanoma
# IGROVI = assay: NCI human cancer cell line growth inhibition: IGROVI; format: cell-based; settings: Ovarian
# OVCAR-3 = assay: NCI human cancer cell line growth inhibition: OVCAR-3; format: cell-based; settings: OVCAR-3, Ovarian
# OVCAR-4 = assay: NCI human cancer cell line growth inhibition: OVCAR-4; format: cell-based; settings: OVCAR-4, Ovarian
# OVCAR-5 = assay: NCI human cancer cell line growth inhibition: OVCAR-5; format: cell-based; settings: OVCAR-5, Ovarian
# 786-0 = assay: NCI human cancer cell line growth inhibition: 786-0; format: cell-based; settings: 786-0, Renal
# ACHN = assay: NCI human cancer cell line growth inhibition: ACHN; format: cell-based; settings: Renal
# CAKI-1 = assay: NCI human cancer cell line growth inhibition: CAKI-1; format: cell-based; settings: CAKI-1, Renal
# SN12C = assay: NCI human cancer cell line growth inhibition: SN12C; format: cell-based; settings: Renal
# TK-10 = assay: NCI human cancer cell line growth inhibition: TK-10; format: cell-based; settings: TK-10, Renal
# UO-31 = assay: NCI human cancer cell line growth inhibition: UO-31; format: cell-based; settings: UO-31, Renal
# MCF7 = assay: NCI human cancer cell line growth inhibition: MCF7; format: cell-based; settings: MCF7, Breast
# NCI/ADR-RES = format: cell-based, human; settings: Homo sapiens, Breast, read-out: Growth inhibition (GI50) (converted)
# BT-549 = assay: NCI human cancer cell line growth inhibition: BT-549; format: cell-based; settings: BT-549, Breast
compound,measurement,setting,value
CCCCCCCC(=O)O[C@H]1/C(=C/C(=O)OC)C[C@H]2C[C@H](CO)OC(=O)C[C@H](O)C[C@@H]3CCCC(CC4CCO[C@H](/C=C/C(C)(C)[C@]1(O)O2)O4)O3 [Formula IIa (702.1)],potency compared with bryostatin-1,[1],"at least as potent, on average, as bryostatin-1"
same,GI50,CCRF-CEM; Homo sapiens,1.55 µM
same,Difference (GI50 desmethyl vs Bryo-1),CCRF-CEM,−0.51
same,Difference (GI50 desmethyl vs Bryo-1),HL-60(TB),−0.14
same,GI50,"HL-60(TB); Homo sapiens, HL-60, read-out: Growth inhibition (GI50)",1.45 µM
same,GI50,"K-562; Homo sapiens, K562",0.0316 µM
same,Difference (GI50 desmethyl vs Bryo-1),K-562,−2.10
same,more active than bryostatin-1 by,K-562,more than 2 orders of magnitude
same,GI50,SR; Homo sapiens,7.94 µM
same,Difference (GI50 desmethyl vs Bryo-1),SR,−0.10
same,GI50,A549/ATCC; Homo sapiens,0.24 µM
same,Difference (GI50 desmethyl vs Bryo-1),A549/ATCC,−1.42
same,GI50,EKVX; Homo sapiens,2.63 µM
same,Difference (GI50 desmethyl vs Bryo-1),EKVX,−0.28
same,GI50,HOP-62,16.2 µM
same,Difference (GI50 desmethyl vs Bryo-1),COLO 205,−1.68
same,GI50,COLO 205; Homo sapiens,0.0832 µM
same,Difference (GI50 desmethyl vs Bryo-1),HCT-116,−0.02
same,GI50,HCT-116; Homo sapiens,4.79 µM
same,Difference (GI50 desmethyl vs Bryo-1),HT29,−0.25
same,GI50,"HT29; Homo sapiens, HT-29",2.82 µM
same,GI50,SW-620; Homo sapiens,7.59 µM
same,Difference (GI50 desmethyl vs Bryo-1),SW-620,0.38
same,GI50,SF-268; Homo sapiens,10.7 µM
same,Difference (GI50 desmethyl vs Bryo-1),SF-268,0.13
same,GI50,SF-295; Homo sapiens,0.891 µM
same,Difference (GI50 desmethyl vs Bryo-1),SF-295,−0.85
same,GI50,SF-539; Homo sapiens,1.7 µM
same,Difference (GI50 desmethyl vs Bryo-1),SF-539,−0.77
same,GI50,SNB-75; Homo sapiens,10.7 µM
same,Difference (GI50 desmethyl vs Bryo-1),SNB-75,0.53
same,GI50,"U251; Homo sapiens, U-251",3.98 µM
same,Difference (GI50 desmethyl vs Bryo-1),U251,−0.30
same,GI50,PC-3; Homo sapiens,2.51 µM
same,Difference (GI50 desmethyl vs Bryo-1),PC-3,−0.30
same,Difference (GI50 desmethyl vs Bryo-1),DU-145,−0.02
same,GI50,DU-145; Homo sapiens,9.55 µM
same,GI50,LOX IMVI; Homo sapiens,3.39 µM
same,Difference (GI50 desmethyl vs Bryo-1),LOX IMVI,−0.37
same,GI50,SK-MEL-5; Homo sapiens,0.372 µM
same,Difference (GI50 desmethyl vs Bryo-1),SK-MEL-5,−0.73
same,GI50,UACC-257; Homo sapiens,7.41 µM
same,Difference (GI50 desmethyl vs Bryo-1),UACC-257,−0.03
same,GI50,UACC-62; Homo sapiens,7.76 µM
same,Difference (GI50 desmethyl vs Bryo-1),UACC-62,0.19
same,GI50,IGROVI; Homo sapiens,13.2 µM
same,Difference (GI50 desmethyl vs Bryo-1),IGROVI,0.42
same,GI50,OVCAR-3; Homo sapiens,14.8 µM
same,Difference (GI50 desmethyl vs Bryo-1),OVCAR-3,0.27
same,GI50,OVCAR-4; Homo sapiens,7.08 µM
same,Difference (GI50 desmethyl vs Bryo-1),OVCAR-4,0.35
same,GI50,OVCAR-5; Homo sapiens,5.25 µM
same,Difference (GI50 desmethyl vs Bryo-1),OVCAR-5,−0.28
same,Difference (GI50 desmethyl vs Bryo-1),786-0,−0.26
same,GI50,786-0; Homo sapiens,3.47 µM
same,GI50,ACHN; Homo sapiens,1.15 µM
same,Difference (GI50 desmethyl vs Bryo-1),ACHN,−0.44
same,Difference (GI50 desmethyl vs Bryo-1),CAKI-1,−0.30
same,GI50,CAKI-1; Homo sapiens,2 µM
same,GI50,SN12C; Homo sapiens,2.57 µM
same,Difference (GI50 desmethyl vs Bryo-1),SN12C,−0.49
same,GI50,TK-10; Homo sapiens,0.0933 µM
same,Difference (GI50 desmethyl vs Bryo-1),TK-10,−2.03
same,more active than bryostatin-1 by,TK-10,more than 2 orders of magnitude
same,GI50,UO-31; Homo sapiens,14.1 µM
same,Difference (GI50 desmethyl vs Bryo-1),UO-31,0.75
same,GI50,MCF7; Homo sapiens,3.98 µM
same,Difference (GI50 desmethyl vs Bryo-1),MCF7,−0.20
same,GI50,NCI/ADR-RES,18.2 µM
same,Difference (GI50 desmethyl vs Bryo-1),BT-549,0.39
same,GI50,BT-549; Homo sapiens,19.5 µM
